Measured values as given in US12473295B2, “Substituted straight chain spiro derivatives” (Janssen Pharmaceutica NV, priority 2019, dated 2025).
Structures can show the parent of a compound that is named as a salt. Where two headings read alike, the source gives them in different places.

Key:
MOLM14 cells = assay: Proliferation assay (spheroid growth, 8 days), MOLM14; assay type: cell-based, human; settings: MOLM14, 8 days, read-out: spheroid assay_OneTime MOLM14 IC50;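 note: spheroid size read as confluence by live-cell imaging, compounds added at a range of concentrations with 0.3% DMSO, DMSO-treated wells = 0%, highest reference dose = low control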
OCI-AML3 cells = assay: Proliferation assay (spheroid growth, 8 days), OCI-AML3; assay type: cell-based, human; settings: OCI-AML3, 8 days
Summary of the method: (§1)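 200 MOLM14 (MLL-AF9), 200 OCI-AML3 (NPM1c) or 300 KO-52 (MLL wildtype) cells were grown as spheroids in ultra-low attachment wells with compound, 0.3% DMSO, for 8 days at 37 °C. Confluence was imaged on day 8, normalized to DMSO and top-dose reference compound. IC50 came from a variable-slope fit constrained 0–100%.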

KO-52 cells = assay: Proliferation assay (spheroid growth, 8 days), KO-52 control cell line; assay type: cell-based, human; settings: read-out: spheroid assay_OneTime KO-52 IC50
Summary of the method: as §1

MEIS1 mRNA = MEIS1 mRNA expression assay (Quantigene Singleplex) in MOLM14 cells; assay type: cell-based, human; settings: 48 hours incubation;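 note: MEIS1 transcript levels read by probe hybridization and normalized to RPL28 mRNA, with IC50 fitted to fold changes across a rising compound concentration series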
[1] = Metabolic stability in human liver microsomes; assay type: in vitro ADME; settings: human liver microsomes 0.5 mg/mL, 1 μM test compound, pH 7.4; for microsomal CLint at 1 μM: read-out: Human LM Clint
Protocol: (§2) 4) Metabolic Stability in Human/Mouse Liver Microsomes
(§3) The objective of this study is to measure in vitro metabolic stability of test compound(s) in human and mouse liver microsomes and provide quantitative information on the rate of metabolic turnover (i.e. determination of the apparent intrinsic clearance of test).
(§4) Test items were prepared at a stock concentration of 10 mM in DMSO. For determination of metabolic turnover, a final working solution was prepared by adding 2 μL of 10 mM DMSO stock solution for test compound or positive control compounds to 198 μL of acetonitrile (100 μM final concentration).
(§5) Incubations were performed as follows: First, liver microsomes were thawed on ice and a master solution containing liver microsomes in 100 mM PBS (phosphate-buffered saline) at pH 7.4 is prepared. Next, the liver microsomes solution was added to the incubation plates and 10 mM NADPH (Nicotinamide-adenine dinucleotide phosphate) was added (MW: 833.4 g/mol; Roche Diagnostics GmbH, Germany. Dissolved in phosphate buffer (100 mmol/L, pH 7.4)). The mixture was mixed for 10 seconds and pre-warmed in the incubation plate at 37° C. for 10 minutes. The metabolic reaction was initiated with the addition of 5 μL of the 100 μM working solution for test compound or positive control compounds to incubation plate (final test item concentration=1 μM). The reaction final mixture should contain 1 mM NADPH, 0.5 mg/mL microsomes protein and 1 μM test compound or positive control compound in 100 mM PBS at pH 7.4. The percentage of organic solvent in incubation mixture is 1% with DMSO ≤0.02%.
(§6) The reaction was quenched by transferring 50 μL of the incubated mixture at selected time points into the quenching plate containing 200 μL of cold methanol. After sampling of all the timepoints the quenching plate was centrifuged at 4000 rpm for 40 minutes to precipitate protein. A total of 90 μL of the supernatant was transferred to an analysis plate and ultra-pure H2O water is added into each well for LC/MS/MS analysis. All incubations and analysis were performed in duplicate.
(§7) All calculations were carried out using Microsoft Excel. The slope value, k, was determined by linear regression of the natural logarithm of the remaining percentage of the parent drug vs. incubation time curve.
(§8) The in vitro half-life (in vitro tin) was determined from the slope value: in vitro t1/2=−(0.693/k)
(§9) Conversion of the in vitro tin (in min) into the in vitro intrinsic clearance (in vitro CLint, in μL/min/mg proteins) was done using the following equation: […]

[2] = Metabolic stability in mouse liver microsomes; assay type: in vitro ADME; settings: mouse liver microsomes 0.5 mg/mL, 1 μM test compound, pH 7.4; for microsomal CLint at 1 μM: read-out: Mouse LM Clint
Protocol: as §2, §3, §4, §5, §6, §7, §8, §9

hERG potassium channel = hERG potassium channel (Homo sapiens (Human), UniProt Q12809); assay: Effect on membrane potassium current IKr in hERG transfected CHO cells, Protocol 1 (QPatch); assay type: cell-based
Sequence of hERG potassium channel (Q12809 whole entry): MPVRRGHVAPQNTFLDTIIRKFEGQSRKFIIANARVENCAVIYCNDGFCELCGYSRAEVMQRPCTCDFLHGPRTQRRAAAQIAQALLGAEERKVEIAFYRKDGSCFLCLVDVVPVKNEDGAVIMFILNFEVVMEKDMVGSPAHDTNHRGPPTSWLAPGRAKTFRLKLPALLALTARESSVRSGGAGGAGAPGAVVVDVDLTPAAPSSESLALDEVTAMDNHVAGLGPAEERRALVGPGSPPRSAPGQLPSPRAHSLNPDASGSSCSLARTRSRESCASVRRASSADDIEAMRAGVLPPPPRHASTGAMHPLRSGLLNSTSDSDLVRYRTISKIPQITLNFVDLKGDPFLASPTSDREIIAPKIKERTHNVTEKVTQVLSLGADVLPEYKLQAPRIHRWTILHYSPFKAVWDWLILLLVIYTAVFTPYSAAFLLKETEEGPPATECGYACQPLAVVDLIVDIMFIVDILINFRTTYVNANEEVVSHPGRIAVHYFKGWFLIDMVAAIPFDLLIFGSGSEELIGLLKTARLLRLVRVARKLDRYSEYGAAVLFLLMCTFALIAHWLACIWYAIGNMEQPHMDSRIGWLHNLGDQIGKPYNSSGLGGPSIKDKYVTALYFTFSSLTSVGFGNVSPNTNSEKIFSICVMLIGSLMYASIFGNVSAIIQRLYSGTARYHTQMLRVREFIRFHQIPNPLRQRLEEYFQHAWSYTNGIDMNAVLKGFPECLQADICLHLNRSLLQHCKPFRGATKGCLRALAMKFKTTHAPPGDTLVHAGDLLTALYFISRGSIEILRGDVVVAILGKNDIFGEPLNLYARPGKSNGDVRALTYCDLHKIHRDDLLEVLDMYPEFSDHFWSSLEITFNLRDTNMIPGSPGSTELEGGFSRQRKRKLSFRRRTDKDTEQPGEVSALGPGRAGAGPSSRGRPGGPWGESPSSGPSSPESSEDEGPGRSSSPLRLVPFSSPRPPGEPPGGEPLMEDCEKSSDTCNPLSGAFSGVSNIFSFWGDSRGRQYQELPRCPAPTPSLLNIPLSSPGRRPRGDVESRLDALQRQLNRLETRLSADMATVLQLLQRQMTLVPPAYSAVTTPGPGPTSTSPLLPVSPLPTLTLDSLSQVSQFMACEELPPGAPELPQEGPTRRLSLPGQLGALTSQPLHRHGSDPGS
Protocol: 8) Effect on the Membrane Potassium Current IKr in hERG Transfected Cell Lines
• CHO Chinese hamster ovary cell line • DMSO Dimethylsulfoxide • hERG human ether-á-go-go-related gene • IKr rapidly activating delayed-rectifier K^+ current Methods
Experiments were performed using CHO cells stably expressing the hERG potassium channel. Cells were grown at 37° C. and 5% CO2 in culture flasks in Ham's F12 Medium supplemented with 10% heat-inactivated fetal calf serum, hygromycin B (100 μg/ml) and geneticin (100 μg/ml). For use in the automated patch-clamp system QPatch (Sophion) cells were harvested to obtain cell suspension of single cells.
Solutions: The bath solution contained (in mM) 145 NaCl, 4 KCl, 10 glucose, 10 HEPES ((4-(2-hydroxyethyl)-1-piperazineethanesulfonic acid), 2 CaCl2 and 1 MgCl2 (pH 7.4 with NaOH). The pipette solution contained (in mM) 120 KCl, 10 EGTA (Ethylene glycol-bis(2-aminoethylether)-N,N,N′,N′-tetraacetic acid), 10 HEPES, 5.374 CaCl2 and 1.75 MgCl2 (pH 7.2 with KOH).
Patch-clamp experiments were performed in the voltage-clamp mode and whole-cell currents were recorded with an automated patch-clamp assay utilizing the QPatch system (Sophion). Current signals were amplified and digitized, stored and analyzed by using the QPatch assay software.
The holding potential was −80 mV. The hERG current (K^+-selective outward current) was determined as the maximal tail current at −40 mV after a 2 second depolarization to +60 mV. Pulse cycling rate was 15 s. A short pulse (90 ms) to −40 mV served as a baseline step to calculate the tail current amplitude. After establishing whole-cell configuration and a stability period, the solvent control (0.3% DMSO) was applied for 5 minutes followed by the test substance by four increasing concentrations of 3×10^−7 M, 3×10^−6 M, 10^−5 M and 3×10^−5 M. Each concentration of the test substance was applied twice. The effect of each concentration was determined after 5 min as an average current of 3 sequential voltage pulses. To determine the extent of block the residual current was compared with vehicle pre-treatment.
Concentration/response relations were calculated by non-linear least-squares fits to the individual data points. The half-maximal inhibiting concentration (IC50) was calculated by the fitting routine.

[3] = Mouse PK (in vivo T1/2 and oral bioavailability); settings: fasted male CD-1 mice, formulating agent HP-β-CD; for half-life: single IV 0.5 or 1.0 mg/kg; for bioavailability: single PO 5 mg/kg
Protocol: 3) Mouse PK (In Vivo T1/2 and Oral Bioavailability)
In vivo pharmacokinetics (PK) were assessed in fasted male CD-1 mice (age 6-8 weeks) following a single intravenous (IV, 0.5 or 1.0 mg/kg administered at 2.5 ml/kg) or oral (PO, 5 mg/kg administered at 10 ml solution/kg) dose of test article formulated in a 20% (w:vol) HP-β-CD solution or in Pyrogen free water.
Plasma and/or whole blood samples were collected from the dorsal metatarsal vein at desired timepoints via serial capillary microsampling (approx. 0.03 mL) using EDTA as an anticoagulant. Concentrations of compound in the plasma and blood samples were analyzed using a qualified LC-MS/MS method. In silico analysis of main pharmacokinetic parameters was performed using WinNonlin (Phoenix™, version 6.1) or similar software. (Results see Table 4)

[4] = molecular target: menin/MLL (terbium chelate-labeled menin, FITC-MBM1 peptide) (Homo sapiens (Human), UniProt O00255); assay: Menin/MLL homogenous time-resolved fluorescence (HTRF) assay; assay type: binding;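 note: IC50 from percent inhibition of HTRF signal, normalized between wells without competitor and wells with a saturating competitor that displaces FITC-MBM1 from His-tagged menin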
Sequence of menin/MLL (terbium chelate-labeled menin, FITC-MBM1 peptide) (O00255 other isoform, or with tags, fused parts or gaps): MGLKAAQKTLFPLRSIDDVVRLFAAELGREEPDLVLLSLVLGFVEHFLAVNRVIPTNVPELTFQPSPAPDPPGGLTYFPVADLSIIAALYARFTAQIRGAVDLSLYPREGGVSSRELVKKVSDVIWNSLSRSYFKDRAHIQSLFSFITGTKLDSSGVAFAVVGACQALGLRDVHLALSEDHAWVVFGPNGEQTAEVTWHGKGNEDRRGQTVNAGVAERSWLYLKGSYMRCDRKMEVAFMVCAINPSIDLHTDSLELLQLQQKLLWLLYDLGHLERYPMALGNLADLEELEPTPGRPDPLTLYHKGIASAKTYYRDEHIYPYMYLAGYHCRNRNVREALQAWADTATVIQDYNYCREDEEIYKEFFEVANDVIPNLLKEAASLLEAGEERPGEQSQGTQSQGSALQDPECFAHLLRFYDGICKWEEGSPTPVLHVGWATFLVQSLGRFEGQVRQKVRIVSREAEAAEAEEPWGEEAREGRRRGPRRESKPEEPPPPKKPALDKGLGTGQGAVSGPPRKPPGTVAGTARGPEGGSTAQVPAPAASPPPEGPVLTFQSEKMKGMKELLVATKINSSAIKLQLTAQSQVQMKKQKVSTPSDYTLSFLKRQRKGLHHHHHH

[5] = HTRF-30 min incubation IC50, 30 min incubation

SMILES | IC50 (MOLM14 cells; Homo sapiens, MOLM-14, […]) | IC50 (OCI-AML3 cells; Homo sapiens, OCI-AML-3, […]) | IC50 (KO-52 cells; Homo sapiens, […]) | IC50 (MEIS1 mRNA; Homo sapiens, MOLM-14, 48 h) | microsomal CLint at 1 μM [1] | microsomal CLint at 1 μM [2] | IC50 (hERG potassium channel) | half-life [3] | bioavailability [3] | IC50 [4, 5] | further results
CCN(C(=O)c1cc(F)ccc1Oc1nnccc1N1CCC2(C1)CN([C@H](CCCN(C)CCOC)C(C)C)C2)C(C)C (single isomer, unassigned) [Compound 83] | 170 nM | 420 nM | 6240 nM | 92 nM | 539 µL/min/mg | > 1000 µL/min/mg | 6000 nM | – | – | – | –
CCN(C(=O)c1cc(F)ccc1Oc1nncnc1N1CCC2(C1)CN([C@H](CCCN[C@H](C)COC)C(C)C)C2)C(C)C.O=C(O)/C=C/C(=O)O [Compound 112] | – | – | – | – | – | – | – | 6.2 h | 4% | – | –
CCN(C(=O)c1cc(F)ccc1Oc1nncnc1N1CCC2(C1)CN([C@H](CCCNC(C)=O)C(C)C)C2)C(C)C [Compound 6, (R)-2-((5(2-(6-acetamido-2-methylhexan-3-yl)-2,6-diazaspiro[3.4]octan-6-yl)-1,2,4-triazin-6-yl)oxy)-N-ethyl-5-fluoro-N-isopropylbenzamide formate] | 480 nM | 1860 nM | > 15000 nM | 360 nM | 35 µL/min/mg | 28 µL/min/mg | – | – | – | 0.61 nM | –
CCN(C(=O)c1cc(F)ccc1Oc1nncnc1N1CCC2(C1)CN([C@H](CCO)C(C)C)C2)C(C)C (single isomer, unassigned) [Compound 214, (*R)—N-ethyl-5-fluoro-2-((5-(2-(1-hydroxy-4-methylpentan-3-yl)-2,6-diazaspiro[3.4]octan-6-yl)-1,2,4-triazin-6-yl)oxy)-N-isopropylbenzamide] | – | – | – | – | – | – | – | – | – | – | IC50 ([4]; read-out: HTRF-30 min incubation IC50, 30 min incubation): 0.49 nM; IC50 (MOLM14 cells): 120 nM; IC50 (OCI-AML3 cells): 380 nM; IC50 (KO-52 cells): > 15000 nM; IC50 (MEIS1 mRNA): 140 nM; Human LM Clint [1]: 44 µL/min/mg; Mouse LM Clint [2]: 80 µL/min/mg
CCN(C(=O)c1cc(F)ccc1Oc1nncnc1N1CCC2(C1)CN([C@H](CCCN(C)C(COC)COC)C(C)C)C2)C(C)C [Compound 161, (R)-2-((5-(2-(6-((1,3-dimethoxypropan-2-yl)(methyl)amino)-2-methylhexan-3-yl)-2,6-diazaspiro[3.4]octan-6-yl)-1,2,4-triazin-6-yl)oxy)-N-ethyl-5-fluoro-N-isopropylbenzamide fumarate] | 16 nM | 55 nM | > 15000 nM | 41 nM | 70 µL/min/mg | 55 µL/min/mg | – | – | – | 0.23 nM | –
CCN(C(=O)c1cc(F)ccc1Oc1nncnc1N1CCC2(C1)CN([C@H](CCCNCCOC)C(C)C)C2)C(C)C [Compound 397, (R)-N-ethyl-5-fluoro-N-isopropyl-2-((5-(2-(6-((2-methoxyethyl)amino)-2-methylhexan-3-yl)-2,6-diazaspiro[3.4]octan-6-yl)-1,2,4-triazin-6-yl)oxy)benzamide fumarate] | 15 nM | – | > 15000 nM | – | – | < 7.5 µL/min/mg | – | – | – | – | IC50 (OCI-AML3 cells; fumarate): 27 nM
CCN(C(=O)c1cc(F)ccc1Oc1nncnc1N1CCC2(C1)CN([C@H](CCCNCCC(F)F)C(C)C)C2)C(C)C.O=C(O)/C=C/C(=O)O [Compound 114] | – | – | – | – | – | – | – | 9.5 h | 8.7% | – | –
CCN(C(=O)c1cc(F)ccc1Oc1nncnc1N1CCC2(C1)CN([C@H](CCC(C)(C)N)C(C)C)C2)C(C)C (single isomer, unassigned) [Compound 30, (*R)-2-((5-(2-(6-amino-2,6-dimethylheptan-3-yl)-2,6-diazaspiro[3.4]octan-6-yl)-1,2,4-triazin-6-yl)oxy)-N-ethyl-5-fluoro-N-isopropylbenzamide] | 130 nM | 470 nM | > 15000 nM | 99 nM | – | – | > 30200 nM | – | – | 0.067 nM | –
CC(C)[C@@H](CCCN(C)C)N1CC2(CCN(c3ncnnc3Oc3ccc(F)cc3C(=O)N(C(C)C)C(C)C)C2)C1 (single isomer, unassigned) [Compound 102, (*R)-2-((5(2-(6-(dimethylamino)-2-methylhexan-3-yl)-2,6-diazaspiro[3.4]octan-6-yl)-1,2,4-triazin-6-yl)oxy)-5-fluoro-N,N-diisopropylbenzamide fumarate] | 16 nM | 110 nM | > 15000 nM | 33 nM | – | – | – | 11 h | 9.7% | 0.11 nM | –
CCN(C(=O)c1cc(F)ccc1Oc1nncnc1N1CCC2(C1)CN([C@H](CCCN(C)CC(C)OC)C(C)C)C2)C(C)C (stereo partly drawn) [Compound 252, N-ethyl-5-fluoro-N-isopropyl-2-((5-(2-((3R)-6-((2-methoxypropyl)(methyl)amino)-2-methylhexan-3-yl)-2,6-diazaspiro[3.4]octan-6-yl)-1,2,4-triazin-6-yl)oxy)benzamide oxalate] | 32 nM | 640 nM | 7260 nM | 53 nM | – | – | > 30200 nM | – | – | 0.065 nM | –
